In US20240115564A1, “HTR1F ANTAGONISTS FOR IMPROVEMENT OF BETA CELL SURVIVAL AND FUNCTION” (The Regents of the University of California, priority 2021, published 2024):

Experiments:
human islets = experiment: Glucose-stimulated insulin release in human islets; assay type: cell-based; conditions: 150 nM, 11 mM glucose, 9 human islet donors, vs DMSO
Procedure: Human islets were rested for 24 hours after receipt in CMRL 1066 (Media Tech) supplemented with penicillin and streptomycin, B27 supplement, Glutamax (Thermo), and non-essential amino acids (Thermo). For both the test treatment group and the control treatment group, 40-60 islets for each of the 5 replicates were hand-picked. The islets were equilibrated for two hours at 37° C. in Kreb-Ringer Bicarbonate HEPES Buffer pH 7.4 (KRBH; 137 mM NaCl, 4.7 mM KCl, 1.2 mM KH2PO4, 1.2 mM MgSO4, 2.5 mM CaCl2), 25 mM NaHCO3, 20 mM HEPES, 2.8 mM glucose, and 0.25% BSA). Equilibration buffer was then removed and islets were incubated at 37° C. with KRBH pH 7.4 with 2.8 mM glucose and 0.25% BSA and were treated with DMSO or 150 nM HTR1F antagonist 1-(2-hydroxy-3-(naphthalen-2-yloxy)propyl)-4-(quinolin-3-yl)piperidin-4-ol. After 1 hour, islet secretion was collected and islets were treated with KRBH pH 7.4 containing 11 mM glucose and 0.25% BSA and were treated with DMSO or 150 nM antagonist at 37° C. for another hour. Following incubation, islet secretions were collected and the islets were lysed in RIPA buffer to determine the total islet insulin content. Islet secretions were diluted 2-5 fold for analysis with the Mercodia insulin ELISA kit and lysates were diluted 200-500 fold for analysis. […]

HTR1F [1] = target: T1, HTR1F (Homo sapiens, UniProt P30939); experiment: Glosensor cAMP assay in 293T cells transfected with HTR1F cDNA; assay type: cell-based; design: from tissue; host or cells: primary human islets from cadaveric donors, transplanted under the kidney capsule of scid-beige mice; conditions: 10 minutes pre-treatment, serotonin 5 nM then forskolin
T1 sequence (P30939 1-366): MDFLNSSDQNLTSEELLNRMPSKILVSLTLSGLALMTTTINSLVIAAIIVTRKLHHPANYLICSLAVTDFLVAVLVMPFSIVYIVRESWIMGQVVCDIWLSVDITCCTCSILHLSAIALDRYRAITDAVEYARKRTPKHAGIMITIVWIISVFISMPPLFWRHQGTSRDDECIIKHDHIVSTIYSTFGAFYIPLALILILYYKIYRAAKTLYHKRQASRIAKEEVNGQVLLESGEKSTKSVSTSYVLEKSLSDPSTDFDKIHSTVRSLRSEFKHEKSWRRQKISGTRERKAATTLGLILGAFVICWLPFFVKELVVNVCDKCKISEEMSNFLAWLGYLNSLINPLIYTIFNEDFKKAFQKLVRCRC
Procedure: 293T cells were transiently transfected with the Glosensor plasmid (Promega) and the HTR1F cDNA. The cells were pre-treated with 1-(2-hydroxy-3-(naphthalen-2-yloxy)propyl)-4-(quinolin-3-yl)piperidin-4-ol at the concentrations shown in FIG. 4 for 10 minutes, then with serotonin (5 nM), and then forskolin and luminescence was determined. n=5, error bars show standard error. […] N=5 per concentration.

primary human islet cell = experiment: Sytox Green cell death assay in dissociated human islets treated with HTR1F agonist; assay type: cell-based; conditions: 24 hours, two independent donors
Procedure: Dissociated human islets were treated with the indicated doses of LY344864 for 24 hours. Dead cells were monitored by Sytox Green. The number of Sytox Green nuclei were normalized to cell density measured by bright field imaging. n=4 biological replicates for each donor. *p<0.05, **p<0.01 by post-hoc Student's t-test after one-way ANOVA versus vehicle treatment.
(§1) Human beta cell death and proliferation: Islets were dissociated and plated on 804G coated plates as done for the screens. For Sytox Green assays, islets were plated into 96 well plates and Sytox Green (Thermo) was added to the media (30 nM) and green fluorescence and bright field images were captured at 24 hours during culture (Incucyte). The number of green nuclei normalized to the cell density (calculated by brightfield image) was measured in biological triplicate (FIG. 2A). For FIG. 3C, dead nuclei were normalized to total nuclei as measured after treatment of the cells with 0.0625% Triton X-100. For the in vitro TUNEL assay (FIG. 2B and FIG. 2C), cells were fixed in 4% paraformaldehyde in calcium/magnesium free PBS for 15 minutes at room temperature, permeabilized with 0.1% Triton X-100 for 1 hour, blocked with 10% donkey serum in PBS for 1 hour at room temperature, and stained with guinea pig anti-insulin antibody (Agilent) overnight at 4 degrees. […]

other HTR1 receptors = conditions: cited from earlier work
HTR1F [2] = target: T1, HTR1F; conditions: read-out: reported EC50; cited from earlier work
primary human beta cells = experiment: TUNEL / insulin staining of dissociated human islets (beta cell death); assay type: cell-based; conditions: at 10 nM, 24 hours, 4 donors
Procedure: A representative image is shown. White arrows represent cells that are TUNEL+ insulin+ cells. Scale bar is 25 μM.
Given differences in baseline cell death between donors, the fold increase in the fraction of TUNEL+ beta cells over vehicle control is plotted. Standard error is shown, n=4 donors with at least 400 beta cells counted for each donor. *p<0.05, one-way ANOVA, post-hoc tested against vehicle.
as §1

[3] = target: other serotonin family GPCRs and adrenergic receptors; conditions: cited from earlier work
dissociated human islets = experiment: Sytox Green cell death in dissociated human islets with thapsigargan and methysergide; assay type: cell-based; conditions: 48 hours
Procedure: Each graph is from an independent donor. *p<0.05 for thapsigargan and for the interaction between methysergide and thapsigargan by 2-way ANOVA. Standard error is shown.
as §1, with “degrees. Secondary antibody was anti-guinea pig 488 (Thermo) at 1:300 for 1 hour at room temperature. For TUNEL staining, In Situ Death Detection Kit, TMR red (Roche) was used per the manufacturer's protocol in combination with insulin staining as above.” for “degrees.”

[4] = test system: scd beige mice receiving human islets; experiment: Minimal (marginal mass) human islet transplant model with methysergide; assay type: in vivo, mouse; conditions: islets 300 nM 24 hours; mice 10 mg/kg daily peri-transplant, 5 days; p<0.05 log-rank
Procedure: Taken together, FIGS. 3A-3D illustrate the prevention of human beta cell death by blocking of HTR1F signaling.
Minimal human islet transplant model with methysergide: Human islets were treated with 300 nM methysergide maleate or vehicle for 24 hours after isolation. Seven-hundred IEq were then transplanted under the kidney capsule of scd beige mice. Four hours prior to transplant, recipient mice were injected with either 10 mg/kg methysergide maleate or vehicle. After transplant, mice were injected every 24 hours with 10 mg/kg methysergide or vehicle for 5 days. After 48 hours without methysergide treatment to allow washout of the drug, streptozotocin (250 mg/kg) was injected into the peritoneal space with 1 mL of normal saline injected subcutaneously for hydration. […] Blood glucose was assessed by glucometer (Freestyle Lite) after a 6 hour fast (9 am-3 pm). […]
To ask if improved human beta cell survival due to HTR1F inhibition could improve glycemia after transplant, human islets were treated with methysergide or vehicle and then a marginal mass of islets was transplanted into mice. […] After 2 days to allow for methysergide clearance, the endogenous mouse beta cells were destroyed using streptozotocin and monitored for diabetes development. […]

[5] = cited from earlier work
HTR1F [6] = target: T1, HTR1F; conditions: cited from earlier work
[7] = test system: MIN6 cells transfected with GFP-T2A-HTR1F; experiment: MIN6 cell death after HTR1F expression (propidium iodide); assay type: cell-based, mouse; conditions: 200 ng/mL pre-incubation, 32-40 hours after transfection
Procedure: GFP+ cells were assessed for cell death by propidium iodide staining 32-40 hours after transfection. […] Significant post-hoc Holm adjusted Student's t-test comparisons are shown. n=33 for each group conducted over 3 independent experiments. Taken together, FIGS. 2A-2D illustrate the induction of primary human beta cell death by HTR1F signaling.
MIN6 cell death: The human HTR1F cDNA was cloned from 293T cDNA and cloned downstream of a CMV promoter GFP-T2A expression vector with the addition of a viral signal sequence and FLAG epitope tag as previously described. The sequence was confirmed by Sanger sequencing. 10,000 MIN6 cells were plated in a 96-well plate. The following day, the cells were transfected with either the parental GFP-T2A expression vector or GFP-T2A-HTR1F using Lipofectamine 2000 (Thermo Fisher). Six hours after transfection, the media was changed to one containing propidium iodide (Thermo Fisher) at 0.3 ug/mL. The percentage of GFP+ cells that were also PI+ was measured by automated fluorescence microscopy (IncuCyte, Essen Biosciences) at 32-40 hours after transfection. For pertussis toxin (Enzo), cells were treated with 200 ng/mL during cell plating and during transfection.

Molecule: OC(COc1ccc2ccccc2c1)CN1CCC(O)(c2cnc3ccccc3c2)CC1 (centres unmarked) [1-(2-hydroxy-3-(naphthalen-2-yloxy)propyl)-4-(quinolin-3-yl)piperidin-4-ol]
- increase in insulin secretion at high glucose concentration (human islets): 40%
- inhibition of HTR1F (cAMP luminescence) (HTR1F [1]): inhibition of HTR1F

Molecule: CN(C)[C@@H]1CCc2[nH]c3ccc(NC(=O)c4ccc(F)cc4)cc3c2C1 [LY344864]
- primary human islet cell death (Sytox Green) (primary human islet cell): increase primary human islet cell death
- Ki (other HTR1 receptors): > 500 nM
- EC50 (HTR1F [2]): 3 nM
- beta cell death (TUNEL+ insulin+ cells) (primary human beta cells): increase beta cell death
- Ki [3]: 1500 to 5000 nM

Molecule: CC[C@@H](CO)NC(=O)[C@@H]1C=C2c3cccc4c3c(cn4C)C[C@H]2N(C)C1 [methysergide, (6aR,9R)—N—((S)-1-hydroxybutan-2-yl)-4,7-dimethyl-4,6,6a,7,8,9-hexahydroindolo[4,3-fg]quinoline-9-carboxamide]
- effect on death triggered by thapsigargan (dissociated human islets; 30 nM methysergide with 10 μM thapsigargan): prevent death
- effect of methysergide alone on islet cell death (dissociated human islets; 30 nM, dissociated cultures): no effect
- diabetes-free survival / development of diabetes after streptozotocin [4]: protect mice from the development of diabetes
- risk during chronic treatment ([5]; chronic treatment): risk of retroperitoneal fibrosis
- insulin secretion in humans ([5]; humans): increase insulin secretion
- inhibition of HTR1F (HTR1F [6]): potently inhibit

Molecule: pertussis toxin
- effect on HTR1F-induced cell death [7]: blocked
